# Measured values reported in US10759766B2, “Certain chemical entities, compositions, and methods” (NeuPharma, Inc., priority 2011, dated 2020).
# Legend:
# [1] = biological target: KDR (VEGFR2) (Homo sapiens (Human), UniProt P35968); assay: Z′-LYTE kinase inhibition assay (Invitrogen), KDR; assay type: biochemical; conditions: 1 μM compound, Z′-LYTE method; read-out: % inhibition at 1 μM against KDR
# How it was run: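 Z′-LYTE FRET assay: 10 μL reactions with 0.5–11.7 ng KDR and 2 μM Tyr 01 peptide in 50 mM HEPES pH 7.5, 10 mM MgCl2, 1 mM EGTA, 0.01% BRIJ-35, 1 h at room temperature. Development Reagent B (1:256) added for 60 min, fluorescence read; IC50 from concentration–inhibition curves.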
# [2] = biological target: BRAF V600E (Homo sapiens (Human), UniProt P15056, V600E); assay: Z′-LYTE kinase inhibition assay (Invitrogen), BRAF V600E; assay type: biochemical; conditions: 1 μM compound, Z′-LYTE method; read-out: % inhibition at 1 μM against BRAF V600E
# How it was run: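 FRET-based Z′-LYTE peptide phosphorylation format in 50 mM HEPES pH 7.5, 0.01% BRIJ-35, 10 mM MgCl2, 1 mM EGTA with ATP. Kinase reaction 60 min at room temperature, then protease development step 60 min at room temperature before fluorescence read. IC50 from compound concentration versus percent inhibition.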
# [3] = system: A375 cells; assay: Inhibition of cancer cell growth, MTT assay, A375; assay type: cell-based; conditions: Homo sapiens, A-375, 72 h exposure
# How it was run: (§1)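 IC50 derived from percent growth inhibition versus concentration, tested in triplicate. Growth inhibition came from MTT read at 570 nm after 72 h drug exposure, relative to viable cells at dosing. Cells (about 4000/well, RPMI 1640 + 10% FBS) adhered 24 h before treatment; final DMSO 1%.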
# [4] = system: A549 cells; assay: Inhibition of cancer cell growth, MTT assay, A549; assay type: cell-based; conditions: Homo sapiens, A549, 72 h exposure
# How it was run: as §1
# Sequence of KDR (VEGFR2) (P35968 20-1356): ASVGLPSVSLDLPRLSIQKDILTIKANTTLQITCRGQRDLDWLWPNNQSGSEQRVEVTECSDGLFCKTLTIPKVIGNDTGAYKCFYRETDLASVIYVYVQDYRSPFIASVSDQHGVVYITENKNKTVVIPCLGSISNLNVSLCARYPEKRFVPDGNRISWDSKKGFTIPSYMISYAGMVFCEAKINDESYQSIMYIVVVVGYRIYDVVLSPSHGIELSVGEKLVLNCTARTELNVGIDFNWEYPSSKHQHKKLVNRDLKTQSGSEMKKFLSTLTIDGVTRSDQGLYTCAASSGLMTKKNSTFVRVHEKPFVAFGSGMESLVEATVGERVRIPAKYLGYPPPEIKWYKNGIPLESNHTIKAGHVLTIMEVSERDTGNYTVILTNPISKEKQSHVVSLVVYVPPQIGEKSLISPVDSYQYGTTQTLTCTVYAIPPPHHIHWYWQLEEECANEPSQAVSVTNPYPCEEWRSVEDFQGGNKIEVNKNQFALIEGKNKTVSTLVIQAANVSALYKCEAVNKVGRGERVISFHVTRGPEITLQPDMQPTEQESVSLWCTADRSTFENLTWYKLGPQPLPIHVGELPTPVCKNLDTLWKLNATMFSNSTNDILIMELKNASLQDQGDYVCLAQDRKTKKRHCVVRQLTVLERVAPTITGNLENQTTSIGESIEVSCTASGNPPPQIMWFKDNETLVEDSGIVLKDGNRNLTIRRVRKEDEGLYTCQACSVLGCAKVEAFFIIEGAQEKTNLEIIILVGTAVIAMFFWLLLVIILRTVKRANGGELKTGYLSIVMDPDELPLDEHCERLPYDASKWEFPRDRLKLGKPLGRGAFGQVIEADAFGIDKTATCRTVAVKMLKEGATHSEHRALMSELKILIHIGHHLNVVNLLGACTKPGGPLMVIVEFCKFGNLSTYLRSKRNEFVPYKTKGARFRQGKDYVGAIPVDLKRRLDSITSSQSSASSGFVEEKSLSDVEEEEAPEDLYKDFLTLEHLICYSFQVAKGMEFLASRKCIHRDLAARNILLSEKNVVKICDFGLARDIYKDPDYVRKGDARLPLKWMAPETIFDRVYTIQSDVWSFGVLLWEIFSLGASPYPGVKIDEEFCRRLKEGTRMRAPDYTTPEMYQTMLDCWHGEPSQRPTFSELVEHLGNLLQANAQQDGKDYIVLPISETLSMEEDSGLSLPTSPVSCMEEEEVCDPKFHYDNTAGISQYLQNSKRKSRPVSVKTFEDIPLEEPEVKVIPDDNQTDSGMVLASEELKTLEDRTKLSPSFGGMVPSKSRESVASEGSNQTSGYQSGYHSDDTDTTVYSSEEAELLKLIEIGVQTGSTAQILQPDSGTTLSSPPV
# Sequence of BRAF V600E (P15056 whole entry V600E): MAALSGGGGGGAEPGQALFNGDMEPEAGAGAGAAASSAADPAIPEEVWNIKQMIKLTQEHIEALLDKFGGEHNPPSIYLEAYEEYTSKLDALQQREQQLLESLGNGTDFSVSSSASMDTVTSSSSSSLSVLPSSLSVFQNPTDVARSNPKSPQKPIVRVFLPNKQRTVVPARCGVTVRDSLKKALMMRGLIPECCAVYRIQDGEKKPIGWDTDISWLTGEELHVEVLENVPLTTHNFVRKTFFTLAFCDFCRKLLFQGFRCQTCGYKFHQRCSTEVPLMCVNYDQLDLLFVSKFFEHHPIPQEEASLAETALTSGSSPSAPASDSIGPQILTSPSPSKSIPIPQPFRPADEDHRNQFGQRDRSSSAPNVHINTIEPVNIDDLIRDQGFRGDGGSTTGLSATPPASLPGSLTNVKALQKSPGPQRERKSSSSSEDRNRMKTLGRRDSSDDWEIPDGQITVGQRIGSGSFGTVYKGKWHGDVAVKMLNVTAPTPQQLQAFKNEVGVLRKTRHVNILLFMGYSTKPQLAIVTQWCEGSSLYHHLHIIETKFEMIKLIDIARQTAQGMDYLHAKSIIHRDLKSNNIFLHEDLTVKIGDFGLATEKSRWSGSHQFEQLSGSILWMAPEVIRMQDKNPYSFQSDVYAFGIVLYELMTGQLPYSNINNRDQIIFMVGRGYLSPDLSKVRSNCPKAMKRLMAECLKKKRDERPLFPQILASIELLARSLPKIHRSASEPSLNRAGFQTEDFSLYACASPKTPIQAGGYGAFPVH
SMILES,inhibition at 1 µM [1] [%],inhibition at 1 µM [2] [%],IC50 [3] [µM],IC50 [4] [µM]
"O=C(Nc1ccc(Cl)c(Cl)c1)Nc1ccc(F)c(C(=O)c2ccc3ncc(N4CCOCC4)nc3c2)c1 [Compound C058, 1-(3,4-dichlorophenyl)-3-(4-fluoro-3-(3-morpholinoquinoxaline-6-carbonyl)phenyl)urea]",> 89,> 89,< 1,< 2
"Cn1cc(-c2cnc3ccc(C(=O)c4cccc(NC(=O)c5ccc(Cl)c(C(F)(F)F)c5)c4)cc3n2)cn1 [Compound C130, 4-chloro-N-(3-(3-(1-methyl-1H-pyrazol-4-yl)quinoxaline-6-carbonyl)phenyl)-3-(trifluoromethyl)benzamide]",> 89,> 89,1 to 5,< 2
"O=C(Nc1cccc(Cl)c1)Nc1ccc(F)c(C(=O)c2ccc3ncc(N4CCOCC4)nc3c2)c1 [Compound C056, 1-(3-chlorophenyl)-3-(4-fluoro-3-(3-morpholinoquinoxaline-6-carbonyl)phenyl)urea]",> 89,> 89,< 1,2 to 5
"O=C(Nc1cccc(F)c1)Nc1cc(F)cc(C(=O)c2ccc3nccnc3c2)c1 [Compound C025, 1-(3-fluoro-5-(quinoxaline-6-carbonyl)phenyl)-3-(3-fluorophenyl)urea]",< 70,> 89,> 5,> 5
"O=C(Nc1cc(F)cc(C(=O)c2ccc3nccnc3c2)c1)c1cccc(C(F)(F)F)c1 [Compound C126, N-(3-fluoro-5-(quinoxaline-6-carbonyl)phenyl)-3-(trifluoromethyl)benzamide]",< 70,> 89,1 to 5,> 5
"O=C(Nc1cccc(F)c1)Nc1ccc(F)c(C(=O)c2ccc3nccnc3c2)c1 [Compound C013, 1-(4-fluoro-3-(quinoxaline-6-carbonyl)phenyl)-3-(3-fluorophenyl)urea]",70 to 89,> 89,1 to 5,2 to 5
"O=C(Nc1cccc(C(=O)c2ccc3ncc(N4CCCC4)nc3c2)c1)Nc1ccc(Cl)c(C(F)(F)F)c1 [Compound C021, 1-(4-chloro-3-(trifluoromethyl)phenyl)-3-(3-(3-(pyrrolidin-1-yl)quinoxaline-6-carbonyl)phenyl)urea]",> 89,70 to 89,1 to 5,> 5
"O=C(Nc1cccc(C(F)(F)F)c1)Nc1cc(F)c(F)c(C(=O)c2ccc3ncc(N4CCOCC4)nc3c2)c1F [Compound C034, 1-(2,4,5-trifluoro-3-(3-morpholinoquinoxaline-6-carbonyl)phenyl)-3-(3-(trifluoromethyl)phenyl)urea]",< 70,< 70,1 to 5,2 to 5
"O=C(Nc1cccc(C(F)(F)F)c1)Nc1ccc(F)c(C(=O)c2ccc3nccnc3c2)c1F [Compound C010, 1-(2,4-difluoro-3-(quinoxaline-6-carbonyl)phenyl)-3-(3-(trifluoromethyl)phenyl)urea]",< 70,70 to 89,> 5,> 5
"O=C(Nc1cccc(F)c1)Nc1ccc(F)c(C(=O)c2ccc3ncc(N4CCNCC4)nc3c2)c1 [Compound C084, 1-(4-fluoro-3-(3-(piperazin-1-yl)quinoxaline-6-carbonyl)phenyl)-3-(3-fluorophenyl)urea]",> 89,> 89,< 1,2 to 5
"NCCNc1cnc2ccc(C(=O)c3cc(NC(=O)Nc4cccc(F)c4)ccc3F)cc2n1 [Compound C088, 1-(3-(3-((2-aminoethyl)amino)quinoxaline-6-carbonyl)-4-fluorophenyl)-3-(3-fluorophenyl)urea]",> 89,> 89,1 to 5,> 5
"O=C(Nc1cc(F)c(F)c(C(=O)c2ccc3nccnc3c2)c1)c1cccc(F)c1 [Compound C131, N-(3,4-difluoro-5-(quinoxaline-6-carbonyl)phenyl)-3-fluorobenzamide]",< 70,> 89,> 5,> 5
"O=C(Nc1ccc(Cl)c(F)c1)Nc1ccc(F)c(C(=O)c2ccc3nccnc3c2)c1 [Compound C077, 1-(4-chloro-3-fluorophenyl)-3-(4-fluoro-3-(quinoxaline-6-carbonyl)phenyl)urea]",< 70,> 89,1 to 5,> 5
"O=C(Nc1ccc(Cl)c(C(F)(F)F)c1)Nc1cc(F)c(F)c(C(=O)c2ccc3ncc(N4CCOCC4)nc3c2)c1F [Compound C032, 1-(4-chloro-3-(trifluoromethyl)phenyl)-3-(2,4,5-trifluoro-3-(3-morpholinoquinoxaline-6-carbonyl)phenyl)urea]",< 70,< 70,1 to 5,2 to 5

# Other lines, results leading:
inhibition at 1 µM [1] [%],inhibition at 1 µM [2] [%],IC50 [3] [µM],IC50 [4] [µM],SMILES
70 to 89,70 to 89,> 5,> 5,"O=C(Nc1cc(F)c(F)c(C(=O)c2ccc3ncc(N4CCOCC4)nc3c2)c1F)c1cccc(F)c1 [Compound C137, 3-fluoro-N-(2,4,5-trifluoro-3-(3-morpholinoquinoxaline-6-carbonyl)phenyl)benzamide]"
< 70,> 89,> 5,2 to 5,"O=C(Nc1cc(F)cc(C(=O)c2ccc3nccnc3c2)c1)Nc1ccc(Cl)c(F)c1 [Compound C061, 1-(4-chloro-3-fluorophenyl)-3-(3-fluoro-5-(quinoxaline-6-carbonyl)phenyl)urea]"
< 70,> 89,1 to 5,2 to 5,"O=C(Nc1cc(F)cc(C(=O)c2ccc3ncc(N4CCOCC4)nc3c2)c1)Nc1ccc(F)c(F)c1 [Compound C049, 1-(3,4-difluorophenyl)-3-(3-fluoro-5-(3-morphlinoquinoxaline-6-carbonyl)phenyl)urea]"
< 70,> 89,> 5,> 5,"O=C(Nc1cccc(Cl)c1)Nc1cc(F)cc(C(=O)c2ccc3nccnc3c2)c1 [Compound C068, 1-(3-chlorophenyl)-3-(3-fluoro-5-(quinoxaline-6-carbonyl)phenyl)urea]"
< 70,> 89,> 5,> 5,"O=C(Nc1ccc(F)cc1)Nc1cc(F)cc(C(=O)c2ccc3nccnc3c2)c1 [Compound C064, 1-(3-fluoro-5-(quinoxaline-6-carbonyl)phenyl)-3-(4-fluorophenyl)urea]"
70 to 89,> 89,1 to 5,2 to 5,"O=C(Nc1ccc(F)c(C(=O)c2ccc3nccnc3c2)c1)c1ccc(Cl)c(C(F)(F)F)c1 [Compound C117, 4-chloro-N-(4-fluoro-3-(quinoxaline-6-carbonyl)phenyl)-3-(trifluoromethyl)benzamide]"
70 to 89,> 89,< 1,< 2,"O=C(Nc1ccc(Cl)c(F)c1)Nc1ccc(F)c(C(=O)c2ccc3ncc(N4CCOCC4)nc3c2)c1 [Compound C052, 1-(4-chloro-3-fluorophenyl)-3-(4-fluoro-3-(3-morpholinoquinoxaline-6-carbonyl)phenyl)urea]"
< 70,> 89,> 5,< 2,"O=C(Nc1cc(F)cc(C(=O)c2ccc3nccnc3c2)c1)Nc1ccc(Cl)c(Cl)c1 [Compound C069, 1-(3,4-dichlorophenyl)-3-(3-fluoro-5-(quinoxaline-6-carbonyl)phenyl)urea]"
> 89,> 89,1 to 5,> 5,"NCCNc1cnc2ccc(C(=O)c3cc(NC(=O)Nc4ccc(F)c(F)c4)ccc3F)cc2n1 [Compound C091, 1-(3-(3-((2-aminoethyl)amino)quinoxaline-6-carbonyl)-4-fluorophenyl)-3-(3,4-difluorophenyl)urea]"
< 70,> 89,1 to 5,> 5,"O=C(Nc1ccc(F)c(F)c1)Nc1ccc(F)c(C(=O)c2ccc3nccnc3c2)c1 [Compound C071, 1-(3,4-difluorophenyl)-3-(4-fluoro-3-(quinoxaline-6-carbonyl)phenyl)urea]"
< 70,> 89,1 to 5,> 5,"O=C(Nc1ccc(Cl)cc1)Nc1cc(F)cc(C(=O)c2ccc3nccnc3c2)c1 [Compound C063, 1-(4-chlorophenyl)-3-(3-fluoro-5-(quinoxaline-6-carbonyl)phenyl)urea]"
> 89,> 89,1 to 5,> 5,"NCCNc1cnc2ccc(C(=O)c3cc(NC(=O)Nc4ccc(F)cc4)ccc3F)cc2n1 [Compound C089, 1-(3-(3-((2-aminoethyl)amino)quinoxaline-6-carbonyl)-4-fluorophenyl)-3-(4-fluorophenyl)urea]"
